Results: PubChem BioAssay AID687040 (Broad Institute, 2013)
Active and inactive are the calls of the source.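 The calls were made as follows: active = fitted curve hits 40% activity increase at a dose no higher than the top valid tested dose; inconclusive = flat curve at 30 to 70% activity, or poor fit; inactive = the rest.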

test system: not listed separately; test: miR-122 inhibitors in reporter cells, dose response, cell-based, Huh7-psiCHECK-miR122, luminescence, dry powder (AID 687040); settings: Huh7 psiCHECK-miR122 Renilla luciferase reporter, 48 h; at 35 µM (top of the series)

With `O=S(=O)(Nc1cccc2[nH]ncc12)c1ccc(F)c2ncccc12` the activity increase (miR-122 inhibition) was 6.99% (inactive).

test system: Huh7 psiCHECK-miR122 Renilla luciferase reporter, 48 h; test: as above; settings: not given

First: Cc1ccc(C(=O)C2Oc3ccccc3C3CC(c4ccc(C)cc4)=NN23)cc1 (centres undefined)
Second: CCOc1ccccc1N1CCN(C(=O)c2cccc(-c3ccc(O)cc3)c2)CC1
The AC40 of the first is higher: 831 nM for the first, less than 260 nM for the second.

`CC1CCCCN1C(=O)c1cc2nc(-c3ccccc3)cc(-c3ccccc3)n2n1` (centres undefined) and `Nc1c(S(=O)(=O)c2cccs2)c2nc3ccccc3nc2n1Cc1ccccc1` are within 1.5-fold of each other in AC40: 925 nM for the first, 1250 nM for the second.

Compared with `S=C(Nc1ccc(Cl)cc1Cl)NC1CCCCC1`, `CCOc1ccc(C)cc1S(=O)(=O)NC1CCCCC1` is 11-fold lower in AC40: 4180 nM for the first, 394 nM for the second.

Going from `CCOc1cc(C)c(S(=O)(=O)NC2CCCCC2)cc1C` to `Cc1cc(S(=O)(=O)NC2CCCCC2)c(C)s1`, the AC40 rises from 1240 nM to 2040 nM (1.6-fold).

Going from `Cc1ccc(C)c(S(=O)(=O)Nc2ccc(-n3cnnn3)cc2)c1` to `Cc1ccc(C)c(S(=O)(=O)Nc2ccc3cn[nH]c3c2)c1`, the AC40 rises from 271 nM to 1540 nM (5.7-fold).

Going from `Cc1cc(C)c(S(=O)(=O)NC2CC3CCC2C3)c(C)c1` (centres undefined) to `Cc1cc(C)c(C)c(S(=O)(=O)NC2CCCCC2)c1C`, the AC40 falls from 792 nM to 507 nM (1.6-fold).

Compared with `CN1C(=O)c2cccc3c(S(=O)(=O)NCCc4ccccc4)ccc1c23`, `COc1ccc(S(=O)(=O)NCCN2CCOCC2)c2ccccc12` is 5.3-fold higher in AC40: 300 nM for the first, 1600 nM for the second.

`COC(=O)c1cc(S(=O)(=O)Nc2cc(OC)cc(OC)c2)cn1C` and `COc1ccc(C)cc1NS(=O)(=O)c1ccc2c(c1)N(C)CCO2` are within 1.5-fold of each other in AC40: 3190 nM for the first, 2650 nM for the second.

`Cc1ccc(C(C)C)cc1S(=O)(=O)Nc1cccnc1` and `Cc1cccc(NS(=O)(=O)c2cc3c(cc2C)NC(=O)CO3)c1` are within 1.5-fold of each other in AC40: 1790 nM for the first, 2650 nM for the second.

Compared with `COc1ccc(C(C)(C)C)cc1S(=O)(=O)NCC1CCCO1` (centres undefined), `Cc1cc(C(C)(C)C)cc(S(=O)(=O)NCCO)c1C` is 2.8-fold higher in AC40: 456 nM for the first, 1260 nM for the second.

Going from `COc1cccc(N2CCN(C(=O)c3oc4ccccc4c3NC(=O)CCc3cc(OC)no3)CC2)c1` to `O=C(CN1CCOCC1)Nc1ccc(Br)cc1C(=O)c1ccccc1`, the AC40 falls from 2390 nM to 1430 nM (1.7-fold).

Compared with `O=C(Nc1ccc(N2CCOCC2)c(S(=O)(=O)Nc2cc(Cl)ccc2Cl)c1)c1cccnc1`, `Cc1ccc(NS(=O)(=O)c2cc(C(=O)NCc3ccccn3)ccc2Cl)cc1C` is 3-fold higher in AC40: 761 nM for the first, 2270 nM for the second.

Going from `CCN(CC)C(=O)CN(c1cc2c(cc1OC)oc1ccccc12)S(=O)(=O)c1ccccc1` to `CCCCNS(=O)(=O)c1ccc2nc(-c3cccnc3)cc(C(=O)NC(C)CC)c2c1` (centres undefined), the AC40 falls from 2290 nM to 274 nM (8.4-fold).

First: COc1ccc(S(=O)(=O)Nc2ccc(OC(F)F)cc2)c2cccnc12
Second: Cc1ccc(S(=O)(=O)Nc2ccc3c4c(cccc24)CC3)c(C)c1
The AC40 of the first is 2.6-fold lower: 1430 nM for the first, 3660 nM for the second.

Compared with `COc1cc(C)c(C(C)C)cc1S(=O)(=O)n1cnc(C)c1`, `Cc1cc(C)c(S(=O)(=O)NC(C)C)c(C)c1-n1cnnn1` is 2.7-fold lower in AC40: 4600 nM for the first, 1720 nM for the second.

First: O=S(=O)(c1ccc2c(c1)CCCN2)N1CCC[C@@H]2CCCC[C@H]21
Second: Cc1cc(Cl)c(Cl)cc1S(=O)(=O)NCCCn1ccnc1
The AC40 of the first is 3.7-fold higher: 6940 nM for the first, 1890 nM for the second.

For `O=C(Nc1ccc2ccccc2c1)c1ccc(Cl)cc1Cl`, the AC40 was > 35000 nM (inactive).
